Tested on: HCV genotype 1a replicon
Assay: HCV genotype 1a replicon assay (NS3 protease activity readout)
Type: cell-based, hepatitis C virus
Conditions: for Genotype 1a: HCV genotype 1a replicon; for EC50: Hepatitis C virus, read-out: Genotype 1a, HCV genotype 1a replicon
How it was run: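 EC50 values came from a 4-parameter robust fit of fluorescence (ex 340, em 509 nm) produced by NS3-specific protease in lysates, assayed with 15 μM FRET substrate for 20 min at 37° C, after 48 or 72 hours of compound exposure (0.5% DMSO) of Huh7.5-derived APC89 genotype 1a replicon cells.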

Row | SMILES | Genotype 1a | EC50 [nM]
1 | COC(=O)N[C@H](C(=O)N1C[C@@H](N(C)C)C[C@H]1c1nc(-c2ccc(-c3ccc(NC(=O)c4ccc(N5CCN(C(=O)[C@H]6CC6(C)C)C[C@H]5C)nc4)cc3C)cc2)c[nH]1)C(C)C [Example 2-4] | D (D represents pEC50>10 (EC50<0.1 nM)) | 
2 | COC(=O)N[C@H](C(=O)N1C[C@@H](C)C[C@H]1c1nc(-c2ccc(-c3cc(F)c(NC(=O)c4ccc(N5CCN(C(=O)C(C)(C)CO)C[C@H]5C)nc4)cc3OC(F)(F)F)cc2)c[nH]1)[C@H](C)OC [Example 13-25] |  | 0.1 to 1
3 | COC(=O)N[C@H](C(=O)N1C[C@@H](C)C[C@H]1c1nc(-c2ccc(-c3cc(Cl)c(NC(=O)c4ccc(N5CCN(C(=O)C(C)(C)N6CCOCC6)C[C@H]5C)nc4)cc3OC(F)(F)F)cc2)c[nH]1)C(C)C [Example 12-26] |  | < 0.1
4 | COC(=O)N[C@H](C(=O)N1C[C@H](O)C[C@H]1c1nc(-c2ccc(-c3ccc(NC(=O)c4ccc(N5CCN(C(=O)[C@]6(C)CCCN6C(=O)OC)C[C@H]5C)nc4)cc3)cc2)c[nH]1)C(C)C [Example 26-1] | A (A represents a pEC50 value between 6 and 8 (EC50 between 1 μM and 10 nM)) | 
5 | COC(=O)N[C@H](C(=O)N1C[C@@H](C)C[C@H]1c1nc(-c2ccc(-c3ccc(C(=O)Nc4ccc(N5C[C@H](C)N(C(=O)C(C)(C)NC(C)=O)C[C@H]5C)nc4)cc3OC(F)(F)F)cc2)c[nH]1)C(C)C [Example 4-27] | C (C represents pEC50 between and 9 and about 10, (EC50 between 1 nM and 0.1 nM)) | 
6 | COC(=O)N[C@H](C(=O)N1C[C@@H](C)C[C@H]1c1nc(-c2ccc(-c3cc(Cl)c(NC(=O)c4ccc(N5CCN(C(=O)C(C)(C)CN)C[C@H]5C)nc4)cc3OC(F)(F)F)cc2)c[nH]1)C(C)C [Example 12-36] |  | 10 to 1000
7 | COC(=O)N[C@H](C(=O)N1C[C@@H](C)C[C@H]1c1nc(-c2ccc(-c3cc(F)c(NC(=O)c4ccc(N5CCN(C(=O)[C@]6(C)CCCN6C(=O)OC(C)(C)C)C[C@H]5C)nc4)cc3OC(F)(F)F)cc2)c[nH]1)C(C)C [Example 1-26] | D (D represents pEC50>10 (EC50<0.1 nM)) | 
8 | COC(=O)NC(C(=O)N1C[C@@H](C)C[C@H]1c1nc(-c2ccc(-c3ccc(C(=O)Nc4ccc(N5CCN(C(=O)C(C)(C)C)C[C@H]5C)nc4)c(Cl)c3OC(F)(F)F)cc2)c[nH]1)C1CCOCC1 (some centres unmarked) [Example 25-3] |  | 0.1 to 1
9 | COC(=O)N[C@H](C(=O)N1C[C@@H](C)C[C@H]1c1nc(-c2ccc(-c3cc(Cl)c(NC(=O)c4ccc(N5CCN(C(=O)C(C)(C)CO)C(CO)C5)nc4)cc3OC(F)(F)F)cc2)c[nH]1)C(C)C (some centres unmarked) [Example 14-4] | B (B represents pEC50 between 8 and 9 (EC50 between 1 and 10 nM)) | 
10 | COC(=O)N[C@H](C(=O)N1C[C@@H](C)C[C@H]1c1nc(-c2ccc(-c3cc(Cl)c(NC(=O)c4ccc(N5CCN(C(=O)c6ccccn6)C[C@H]5C)nc4)cc3OC(F)(F)F)cc2)c[nH]1)C(C)C [Example 12-7] |  | 0.1 to 1
11 | COC(=O)N[C@H](C(=O)N1C[C@@H](OC)C[C@H]1c1nc(-c2ccc(-c3cc(Cl)c(NC(=O)c4ccc(N5CCN(C(=O)C(C)(C)CO)C[C@H]5C)nc4)cc3OC(F)(F)F)cc2)c(CO)[nH]1)C(C)C [Example 5-17] |  | < 0.1
12 | COC(=O)N[C@H](C(=O)N1C[C@@H](OC)C[C@H]1c1nc(-c2ccc(-c3ccc(C(=O)Nc4ccc(N5CCN(C(=O)[C@H]6CC6(C)C)C[C@H]5C)nc4)cc3)cc2)c[nH]1)C1CCOCC1 [Example 22-15] | D (D represents pEC50>10 (EC50<0.1 nM)) | 
13 | COC(=O)N[C@H](C(=O)N1C[C@@H](C)C[C@H]1c1nc(-c2ccc(-c3cc(F)c(NC(=O)c4ccc(N5CCN(C(=O)C6CC6)C[C@H]5C)nc4)cc3C(F)(F)F)cc2)c[nH]1)C(C)C [Example 1-52] | C (C represents pEC50 between and 9 and about 10, (EC50 between 1 nM and 0.1 nM)) | 
14 | COC(=O)N[C@H](C(=O)N1C[C@@H](C)C[C@H]1c1nc(-c2ccc(-c3cc(Cl)c(NC(=O)c4ccc(N5CCN(C(=O)C(C)(C)C(=O)O)C[C@H]5C)nc4)cc3OC(F)(F)F)cc2)c[nH]1)C(C)C [Example 12-58] |  | 0.1 to 1
15 | COC(=O)N[C@H](C(=O)N1C[C@@H](O)C[C@H]1c1nc(-c2ccc(-c3ccc(NC(=O)c4ccc(N5CCN(C(=O)c6c[nH]cn6)C[C@H]5C)nc4)cc3)cc2)c[nH]1)C(C)C [Example 26-2] | B (B represents pEC50 between 8 and 9 (EC50 between 1 and 10 nM)) | 
16 | COC(=O)NC(C(=O)N1C[C@@H](C)C[C@H]1c1nc(-c2ccc(-c3cc(Cl)c(C(=O)Nc4ccc(N5CCN(C(=O)C(C)(C)C)C[C@H]5C)nc4)cc3OC(F)(F)F)cc2)c[nH]1)C1CCCCC1 (some centres unmarked) [Example 23-3] |  | 0.1 to 1
17 | COC(=O)N[C@H](C(=O)N1C[C@@H](OC)C[C@H]1c1nc(-c2ccc(-c3ccc(NC(=O)c4ccc(N5CCN(C(=O)C(C)(C)CO)C[C@H]5C)nc4)cc3OC(F)(F)F)cc2)c[nH]1)C1CCOCC1 [Example 28-4] | D (D represents pEC50>10 (EC50<0.1 nM)) | 
18 | COC(=O)N[C@H](C(=O)N1C[C@@H](C)C[C@H]1c1nc(-c2ccc(-c3cc(Cl)c(NC(=O)c4ccc(N5CCN(C(=O)C(C)(C)CNC(=O)CCCC(=O)O)C[C@H]5C)nc4)cc3OC(F)(F)F)cc2)c[nH]1)C(C)C [Example 12-34] |  | 0.1 to 1

Row | SMILES | Genotype 1a | EC50 [nM]
19 | COC(=O)N[C@H](C(=O)N1C[C@@H](N2CCOCC2)C[C@H]1c1nc(-c2ccc(-c3cc(Cl)c(NC(=O)c4ccc(N5CCN(C(=O)[C@H]6CC6(C)C)C[C@H]5C)nc4)cc3OC(F)(F)F)cc2)c[nH]1)C(C)C [Example 15-4] | D (D represents pEC50>10 (EC50<0.1 nM)) | 
20 | COC(=O)CC(=O)NCC(C)(C)C(=O)N1CCN(c2ccc(C(=O)Nc3cc(OC(F)(F)F)c(-c4ccc(-c5c[nH]c([C@@H]6C[C@H](C)CN6C(=O)[C@@H](NC(=O)OC)C(C)C)n5)cc4)cc3Cl)cn2)[C@H](C)C1 [Example 12-33] |  | 0.1 to 1
21 | COCCO[C@H]1C[C@@H](c2nc(-c3ccc(-c4cc(Cl)c(NC(=O)c5ccc(N6CCN(C(=O)C(C)(C)C)C[C@H]6C)nc5)cc4OC(F)(F)F)cc3)c[nH]2)N(C(=O)[C@@H](NC(=O)OC)C(C)C)C1 [Example 15-1] |  | 0.1 to 1
22 | COC(=O)N[C@H](C(=O)N1C[C@@H](C)C[C@H]1c1nc(-c2ccc(-c3ccc(C(=O)Nc4ccc(N5C[C@H](C)N(C(=O)C(C)(C)C)C[C@H]5C)nc4)cc3OC(F)(F)F)cc2)c(Cl)[nH]1)C(C)C [Example 4-26] | D (D represents pEC50>10 (EC50<0.1 nM)) | 
23 | COC(=O)NC(C(=O)N1CC(F)CC1c1nc(-c2ccc(-c3cc(Cl)c(NC(=O)c4ccc(N5CCN(C(=O)C(C)(C)C)CC5C)nc4)cc3OC(F)(F)F)cc2)c[nH]1)C1CCOCC1 (centres unmarked) [Example 29-1] | D (D represents pEC50>10 (EC50<0.1 nM)) | 
24 | COC(=O)NC(C(=O)N1CC(OC)CC1c1nc(-c2ccc(-c3ccc(NC(=O)c4ccc(N5CCN(C(=O)C(C)(C)C)CC5C)nc4)cc3OC(F)(F)F)cc2)c[nH]1)C(C)(C)O (centres unmarked) [Example 16-18] | D (D represents pEC50>10 (EC50<0.1 nM)) | 
25 | COC(=O)N[C@H](C(=O)N1C[C@@H](O)C[C@H]1c1nc(-c2ccc(-c3cc(Cl)c(NC(=O)c4ccc(N5CCN(C(=O)C(C)(C)CO)C[C@H]5C)nc4)cc3OC(F)(F)F)cc2)c[nH]1)C1CCOCC1 [Example 26-11] | A (A represents a pEC50 value between 6 and 8 (EC50 between 1 μM and 10 nM)) | 
26 | COC(=O)N[C@H](C(=O)N1C[C@@H](C)C[C@H]1c1nc(-c2ccc(-c3cc(Cl)c(NC(=O)c4ccc(N5C[C@H](C)N(C(=O)[C@H]6CCCN6C(=O)OC)C[C@H]5C)nc4)cc3OC(F)(F)F)cc2)c[nH]1)C(C)C [Example 1-46] | D (D represents pEC50>10 (EC50<0.1 nM)) | 
27 | COC(=O)N[C@H](C(=O)N1C[C@@H](C)C[C@H]1c1nc(-c2ccc(-c3ccc(C(=O)Nc4ccc(N5CCN(C(=O)C6CC6)C[C@H]5C)nc4)cc3OC(F)(F)F)cc2)c[nH]1)C(C)C [Example 4-35] | C (C represents pEC50 between and 9 and about 10, (EC50 between 1 nM and 0.1 nM)) | 
28 | COC(=O)N[C@@H](C(=O)N1C[C@@H](C)C[C@H]1c1nc(-c2ccc(-c3cc(Cl)c(NC(=O)c4ccc(N5CCN(C(=O)C(C)(C)C)C[C@H]5C)nc4)cc3C(F)(F)F)cc2)c[nH]1)C1CCCCC1 [Example 19-3] | A (A represents a pEC50 value between 6 and 8 (EC50 between 1 μM and 10 nM)) | 
29 | COC(=O)N[C@H](C(=O)N1C[C@@H](C)C[C@H]1c1nc(-c2ccc(-c3cc(Cl)c(NC(=O)c4ccc(N5CCN(C(=O)[C@H]6CCCN6C(=O)C6CC6)C[C@H]5C)nc4)cc3OC(F)(F)F)cc2)c[nH]1)C(C)C [Example 1-51] | D (D represents pEC50>10 (EC50<0.1 nM)) | 
30 | COC(=O)N[C@H](C(=O)N1C[C@@H](C)C[C@H]1c1nc(-c2ccc(-c3cc(F)c(C(=O)Nc4ccc(N5CCN(C(=O)[C@H]6CC6(C)C)C[C@H]5C)nc4)cc3OC(F)(F)F)cc2)c(Cl)[nH]1)C(C)C [Example 4-44] | D (D represents pEC50>10 (EC50<0.1 nM)) | 
31 | COC(=O)N[C@H](C(=O)N1C[C@@H](C)C[C@H]1c1nc(-c2ccc(-c3cc(Cl)c(NC(=O)c4ccc(N5CCN(C(=O)C6CC67CC7)C[C@H]5C)nc4)cc3OC(F)(F)F)cc2)c[nH]1)C(C)C (some centres unmarked) [Example 1-87] | D (D represents pEC50>10 (EC50<0.1 nM)) | 
32 | COC(=O)N[C@H](C(=O)N1C[C@@H](C)C[C@H]1c1nc(-c2ccc(-c3cc(Cl)c(NC(=O)c4ccc(N5CCN(C(=O)[C@H]6CCCN6C(=O)C(C)(C)C)C[C@H]5C)nc4)cc3OC(F)(F)F)cc2)c[nH]1)C(C)C [Example 1-50] | D (D represents pEC50>10 (EC50<0.1 nM)) | 
33 | COC(=O)N[C@H](C(=O)N1C[C@@H](Oc2ccn(C)n2)C[C@H]1c1nc(-c2ccc(-c3cc(Cl)c(NC(=O)c4ccc(N5CCN(C(=O)C(C)(C)C)C[C@H]5C)nc4)cc3OC(F)(F)F)cc2)c[nH]1)C(C)C [Example 15-2] |  | 0.1 to 1
34 | COC(=O)N[C@H](C(=O)N1C[C@@H](C)C[C@H]1c1nc(-c2ccc(-c3cc(Cl)c(NC(=O)c4ccc(N5CCN(C(=O)c6cn(C)cn6)C[C@H]5C)nc4)cc3OC(F)(F)F)cc2)c[nH]1)C(C)C [Example 1-33] | C (C represents pEC50 between and 9 and about 10, (EC50 between 1 nM and 0.1 nM)) | 
35 | COC(=O)NC(C(=O)N1CC(OC)CC1c1nc(-c2ccc(-c3ccc(NC(=O)c4ccc(N5CCN(C(=O)C(C)(C)CO)CC5C)nc4)cc3OC(F)(F)F)cc2)c[nH]1)C(C)(C)O (centres unmarked) [Example 16-17] | D (D represents pEC50>10 (EC50<0.1 nM)) | 

— US9212168B2 (priority 2011, dated 2015)
